Assays:
VEGFR-3 (Flt-4) = VEGFR-3 (Flt-4) (Homo sapiens (Human), UniProt P35916); assay: Enzymatic activity, VEGFR-3 inhibition in vitro; assay type: biochemical
VEGFR-2 KDR = VEGFR-2 KDR (Homo sapiens (Human), UniProt P35968); assay: Enzymatic activity, VEGFR-2 inhibition in vitro; assay type: biochemical; conditions: read-out: Enzymatic Activities IC50 VEGFR-2 KDR or VGFR2 KDR
VEGFR-1 (Flt-1) = VEGFR-1 (Flt-1) (Homo sapiens (Human), UniProt P17948); assay: Enzymatic activity, VEGFR-1 inhibition in vitro; assay type: biochemical; conditions: read-out: Enzymatic Activities IC50 VEGFR-1 (Flt-1) or VGFR1 FLT1
VEGFR-1 (Flt-1), sequence (P17948 27-1338): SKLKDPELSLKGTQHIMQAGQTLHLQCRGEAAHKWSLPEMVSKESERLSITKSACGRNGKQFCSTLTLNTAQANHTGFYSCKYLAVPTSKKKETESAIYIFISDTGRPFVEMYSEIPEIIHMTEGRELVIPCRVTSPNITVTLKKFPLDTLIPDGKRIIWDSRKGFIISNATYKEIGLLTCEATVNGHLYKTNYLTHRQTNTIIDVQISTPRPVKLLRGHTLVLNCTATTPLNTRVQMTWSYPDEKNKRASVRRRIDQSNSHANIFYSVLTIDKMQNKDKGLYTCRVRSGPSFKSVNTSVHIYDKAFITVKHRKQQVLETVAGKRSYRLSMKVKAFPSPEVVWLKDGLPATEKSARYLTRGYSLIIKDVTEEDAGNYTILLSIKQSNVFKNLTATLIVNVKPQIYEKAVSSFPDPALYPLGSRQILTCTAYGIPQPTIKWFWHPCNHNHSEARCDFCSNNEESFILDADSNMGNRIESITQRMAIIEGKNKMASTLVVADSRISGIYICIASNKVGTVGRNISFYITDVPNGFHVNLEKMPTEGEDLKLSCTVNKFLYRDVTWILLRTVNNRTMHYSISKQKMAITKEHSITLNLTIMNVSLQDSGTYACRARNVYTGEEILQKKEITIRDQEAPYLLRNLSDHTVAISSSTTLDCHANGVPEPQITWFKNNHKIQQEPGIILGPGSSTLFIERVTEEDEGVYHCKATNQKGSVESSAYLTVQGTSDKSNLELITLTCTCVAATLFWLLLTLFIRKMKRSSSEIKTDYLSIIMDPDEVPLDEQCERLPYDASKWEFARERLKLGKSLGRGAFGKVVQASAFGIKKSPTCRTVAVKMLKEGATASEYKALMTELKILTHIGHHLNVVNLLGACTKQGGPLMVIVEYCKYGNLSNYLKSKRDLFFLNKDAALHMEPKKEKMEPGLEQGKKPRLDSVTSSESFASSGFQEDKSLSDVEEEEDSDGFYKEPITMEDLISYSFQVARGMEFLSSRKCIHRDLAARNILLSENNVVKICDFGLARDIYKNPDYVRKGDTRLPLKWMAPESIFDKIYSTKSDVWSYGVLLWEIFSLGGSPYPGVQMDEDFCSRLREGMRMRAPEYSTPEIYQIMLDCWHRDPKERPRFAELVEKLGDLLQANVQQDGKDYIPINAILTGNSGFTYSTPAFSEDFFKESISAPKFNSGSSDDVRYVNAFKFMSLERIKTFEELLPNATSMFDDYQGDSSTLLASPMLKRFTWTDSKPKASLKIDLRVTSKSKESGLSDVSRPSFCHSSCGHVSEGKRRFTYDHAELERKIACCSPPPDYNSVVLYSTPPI

[1] = cited from earlier work

VEGFR-2 KDR, sequence (P35968 20-1356): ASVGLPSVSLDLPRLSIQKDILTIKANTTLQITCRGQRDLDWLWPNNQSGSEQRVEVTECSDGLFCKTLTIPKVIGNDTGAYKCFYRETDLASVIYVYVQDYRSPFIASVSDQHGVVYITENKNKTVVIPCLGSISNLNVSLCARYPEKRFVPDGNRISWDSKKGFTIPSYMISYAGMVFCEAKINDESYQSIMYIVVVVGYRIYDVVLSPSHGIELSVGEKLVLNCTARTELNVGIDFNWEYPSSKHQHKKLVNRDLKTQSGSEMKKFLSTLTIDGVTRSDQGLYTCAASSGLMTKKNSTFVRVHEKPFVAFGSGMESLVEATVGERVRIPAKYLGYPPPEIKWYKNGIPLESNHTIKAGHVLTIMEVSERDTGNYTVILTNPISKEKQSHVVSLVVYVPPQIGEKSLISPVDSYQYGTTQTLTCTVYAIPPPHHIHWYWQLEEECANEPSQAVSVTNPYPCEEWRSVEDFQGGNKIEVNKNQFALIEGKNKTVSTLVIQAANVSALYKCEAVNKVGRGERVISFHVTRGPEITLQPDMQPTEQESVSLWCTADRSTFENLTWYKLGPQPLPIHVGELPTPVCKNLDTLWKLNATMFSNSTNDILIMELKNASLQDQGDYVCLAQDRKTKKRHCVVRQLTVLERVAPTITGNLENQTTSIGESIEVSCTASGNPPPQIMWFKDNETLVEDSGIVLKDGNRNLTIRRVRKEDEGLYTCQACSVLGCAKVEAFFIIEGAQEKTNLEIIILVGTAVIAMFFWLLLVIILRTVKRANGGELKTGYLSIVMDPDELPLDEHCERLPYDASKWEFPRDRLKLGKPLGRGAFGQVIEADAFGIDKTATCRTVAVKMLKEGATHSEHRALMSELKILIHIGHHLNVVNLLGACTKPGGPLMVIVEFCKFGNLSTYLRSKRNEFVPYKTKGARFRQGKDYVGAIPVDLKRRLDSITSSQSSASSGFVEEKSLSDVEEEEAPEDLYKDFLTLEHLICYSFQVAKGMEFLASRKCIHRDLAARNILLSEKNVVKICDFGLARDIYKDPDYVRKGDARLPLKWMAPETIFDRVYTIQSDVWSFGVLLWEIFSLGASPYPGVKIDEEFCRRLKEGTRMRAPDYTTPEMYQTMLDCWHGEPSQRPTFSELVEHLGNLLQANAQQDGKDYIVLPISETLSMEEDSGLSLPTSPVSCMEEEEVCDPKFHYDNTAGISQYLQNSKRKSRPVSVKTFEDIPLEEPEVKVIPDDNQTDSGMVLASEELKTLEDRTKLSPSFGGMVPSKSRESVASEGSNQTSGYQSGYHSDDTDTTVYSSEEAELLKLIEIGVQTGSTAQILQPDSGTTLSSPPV
VEGFR-3 (Flt-4), sequence (P35916 25-1363): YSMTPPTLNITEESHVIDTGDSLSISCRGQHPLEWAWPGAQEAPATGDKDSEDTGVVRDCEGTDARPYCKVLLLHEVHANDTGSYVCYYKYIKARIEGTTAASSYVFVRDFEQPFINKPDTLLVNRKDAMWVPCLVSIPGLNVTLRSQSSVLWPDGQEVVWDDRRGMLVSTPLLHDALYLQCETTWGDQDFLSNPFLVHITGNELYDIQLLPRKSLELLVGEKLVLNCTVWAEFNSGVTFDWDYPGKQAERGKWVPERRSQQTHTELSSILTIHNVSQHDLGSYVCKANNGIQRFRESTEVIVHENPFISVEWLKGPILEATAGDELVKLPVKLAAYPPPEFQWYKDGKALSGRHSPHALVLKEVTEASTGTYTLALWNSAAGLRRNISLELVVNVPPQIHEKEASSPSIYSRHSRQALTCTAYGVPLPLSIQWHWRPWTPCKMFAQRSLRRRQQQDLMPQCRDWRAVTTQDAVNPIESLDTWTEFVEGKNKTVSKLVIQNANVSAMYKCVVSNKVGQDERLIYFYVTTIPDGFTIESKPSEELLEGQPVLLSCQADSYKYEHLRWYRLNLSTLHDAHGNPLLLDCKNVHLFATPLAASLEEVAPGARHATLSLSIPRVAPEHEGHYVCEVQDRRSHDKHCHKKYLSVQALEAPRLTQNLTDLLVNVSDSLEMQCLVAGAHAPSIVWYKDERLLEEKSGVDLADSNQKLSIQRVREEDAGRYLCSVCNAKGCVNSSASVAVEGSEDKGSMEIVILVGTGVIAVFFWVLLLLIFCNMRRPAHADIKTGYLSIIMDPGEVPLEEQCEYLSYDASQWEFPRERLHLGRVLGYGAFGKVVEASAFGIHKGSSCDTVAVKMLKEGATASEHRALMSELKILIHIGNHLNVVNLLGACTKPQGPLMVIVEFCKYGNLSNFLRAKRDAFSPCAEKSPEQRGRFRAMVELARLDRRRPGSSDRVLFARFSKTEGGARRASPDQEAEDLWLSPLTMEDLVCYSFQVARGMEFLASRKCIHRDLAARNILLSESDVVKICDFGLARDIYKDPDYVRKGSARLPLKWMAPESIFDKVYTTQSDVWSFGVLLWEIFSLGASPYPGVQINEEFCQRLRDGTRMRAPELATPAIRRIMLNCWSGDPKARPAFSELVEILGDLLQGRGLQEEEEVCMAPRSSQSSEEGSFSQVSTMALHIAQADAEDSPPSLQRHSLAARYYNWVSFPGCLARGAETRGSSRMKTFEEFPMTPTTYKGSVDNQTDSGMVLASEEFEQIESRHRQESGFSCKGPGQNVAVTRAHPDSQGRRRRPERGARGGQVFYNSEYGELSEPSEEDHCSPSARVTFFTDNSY

## Cc1[nH]c(/C=C2\C(=O)Nc3ccc(F)cc32)c(C)c1C(=O)N1CCOCCOCCOCC1 [Formula II]
VEGFR-3 (Flt-4)
  Enzymatic Activities IC50 VEGFR-3 (Flt-4) or VGFR3 FLT4: No Inhibition
VEGFR-2 KDR
  IC50: 2.5 nM
VEGFR-1 (Flt-1)
  IC50: 40 nM

## CCN(CC)CCNC(=O)c1c(C)[nH]c(/C=C2\C(=O)Nc3ccc(F)cc32)c1C [Sunitinib, sunitinib]
[1]; patients studied in RCC
  Patients in whom dose reductions were required to manage toxicities: 50%
[1]; sunitinib therapy, patients
  Serious (grade 3 or 4) adverse events, share of patients: up to 10%

From US9163010B2, “Indolinone protein kinase inhibitors” (Beta Pharma, Inc., priority 2011, dated 2015)
